# Test results reported in article PMC5486812, “Characterisation of three fungal glucuronoyl esterases on glucuronic acid ester model compounds” (Applied Microbiology and Biotechnology, 2017).
# Target: T1, StGE2 (Thermothelomyces thermophilus, UniProt G2QJR6)
# T1 construct: gene ge2; produced in a P. pastoris strain from the OPTIBIOCAT consortium; construct not described
# T1 sequence (G2QJR6 19-397): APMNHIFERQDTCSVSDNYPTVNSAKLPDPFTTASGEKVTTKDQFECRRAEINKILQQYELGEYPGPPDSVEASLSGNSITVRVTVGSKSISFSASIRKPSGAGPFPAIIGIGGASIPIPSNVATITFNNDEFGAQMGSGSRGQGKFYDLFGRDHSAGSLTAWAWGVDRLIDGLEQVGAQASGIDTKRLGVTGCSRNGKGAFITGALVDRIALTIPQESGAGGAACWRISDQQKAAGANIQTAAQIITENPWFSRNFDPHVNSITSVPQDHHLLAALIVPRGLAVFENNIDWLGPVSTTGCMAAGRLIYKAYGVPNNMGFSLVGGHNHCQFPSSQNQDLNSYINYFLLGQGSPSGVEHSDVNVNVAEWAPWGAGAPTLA
# Assay: coupled spectrophotometric GlcA release (K-URONIC kit), relative activity
# Type: biochemical
# Details: 2 mM substrate, pH 6.0, 35 °C, 30 min; purification of StGE2 not described
smiles,measurement,value
O=C(OCc1ccccc1)[C@H]1OC(O)[C@H](O)[C@@H](O)[C@@H]1O (stereo partly shown) [BnGlcA],"coupled spectrophotometric GlcA release (K-URONIC kit), relative activity",enzyme action on BnGlcA produced the highest amount of hydrolysed glucuronic acid
